Here are results for ten compounds from ChEMBL document CHEMBL3046469, “Fungicidal Activities of 2-(Substituted Phenoxymethyl)phenyl-2-methoxyiminoacaetamide Derivatives” (1998).

The first assay relates to Pyricularia oryzae. As to the kind of experiment: Fungicidal activity against Magnaporthe oryzae assessed as rice blast disease control at 125 ppm foliar application for 24 hr before inoculation at 27 +/- 2 degC measured after 5 days by preventive manner. The format is functional.
With `CNC(=O)/C(=N/OC)c1ccccc1COc1ccccc1OC(C)C`, the Activity was 90%.
As for `CNC(=O)/C(=N/OC)c1ccccc1COc1ccccc1-c1ccccc1`, the Activity came out at 90%.
Still for that read-out and setting: for `CNC(=O)/C(=N/OC)c1ccccc1COc1c(Cl)ccc(Cl)c1Cl` the value was 90%; for `CNC(=O)/C(=N/OC)c1ccccc1COc1c(C)ccc(C)c1C`, 90%; for `CNC(=O)/C(=N/OC)c1ccccc1COc1c(C)cccc1C`, 90%.
Take `CNC(=O)/C(=N/OC)c1ccccc1COc1ccc(C#N)cc1`: the Activity was <90%.
The same measure, in the same setting: the result for `CNC(=O)/C(=N/OC)c1ccccc1COc1cccc(N(C)C)c1` reads 90%.
Still for that read-out and setting: for `CNC(=O)/C(=N/OC)c1ccccc1COc1c(Cl)cccc1Cl` the value was 90%; for `CNC(=O)/C(=N/OC)c1ccccc1COc1c(Cl)cc(Cl)cc1Cl`, 90%.
The same measure, in the same setting: for `C#CCOc1ccccc1OCc1ccccc1/C(=N\OC)C(=O)NC` the value was 90%.

Another assay relates to Podosphaera fuliginea. Briefly: Fungicidal activity against Podosphaera fuliginea assessed as cucumber powdery mildew control at 125 ppm foliar application 24 hr before inoculation at 23 +/- 2 degC by preventive manner. The assay is classed as functional.
In the case of `CNC(=O)/C(=N/OC)c1ccccc1COc1ccccc1OC(C)C`, the Activity is on record as 90%.
Same read-out and setting: the result for `CNC(=O)/C(=N/OC)c1ccccc1COc1ccccc1-c1ccccc1` reads 90%.
Same read-out and setting: the result for `CNC(=O)/C(=N/OC)c1ccccc1COc1c(Cl)ccc(Cl)c1Cl` reads 90%.
Regarding `CNC(=O)/C(=N/OC)c1ccccc1COc1c(C)ccc(C)c1C`, the Activity is recorded as <90%.
In the case of `CNC(=O)/C(=N/OC)c1ccccc1COc1c(C)cccc1C`, the Activity is recorded as 90%.
Still for that read-out and setting: the result for `CNC(=O)/C(=N/OC)c1ccccc1COc1ccc(C#N)cc1` reads <90%.
Still for that read-out and setting: for `CNC(=O)/C(=N/OC)c1ccccc1COc1cccc(N(C)C)c1` the value was <90%; for `CNC(=O)/C(=N/OC)c1ccccc1COc1c(Cl)cccc1Cl`, <90%.
As for `CNC(=O)/C(=N/OC)c1ccccc1COc1c(Cl)cc(Cl)cc1Cl`, the Activity came out at 90%.
Same read-out and setting: the result for `C#CCOc1ccccc1OCc1ccccc1/C(=N\OC)C(=O)NC` reads 90%.

For another assay, the system named is Blumeria graminis f. sp. tritici. Briefly: Fungicidal activity against Blumeria graminis f. sp. tritici assessed as wheat powdery mildew disease control at 125 ppm foliar application for 48 hr before inoculation by preventive manner. The assay is classed as functional.
For the compound `CNC(=O)/C(=N/OC)c1ccccc1COc1ccccc1OC(C)C`, the Activity is reported as <90%.
Same read-out and setting: the result for `CNC(=O)/C(=N/OC)c1ccccc1COc1ccccc1-c1ccccc1` reads <90%; that for `CNC(=O)/C(=N/OC)c1ccccc1COc1c(Cl)ccc(Cl)c1Cl`, 90%.
Turning to `CNC(=O)/C(=N/OC)c1ccccc1COc1c(C)ccc(C)c1C`, the Activity was <90%.
As to `CNC(=O)/C(=N/OC)c1ccccc1COc1c(C)cccc1C`, the Activity is on record as 90%.
The same measure, in the same setting: the result for `CNC(=O)/C(=N/OC)c1ccccc1COc1ccc(C#N)cc1` reads 90%.
For `CNC(=O)/C(=N/OC)c1ccccc1COc1cccc(N(C)C)c1`, the Activity is <90%.
Same read-out and setting: the result for `C#CCOc1ccccc1OCc1ccccc1/C(=N\OC)C(=O)NC` reads <90%.

The next assay shares this test system. As to the kind of experiment: Fungicidal activity against Blumeria graminis f. sp. tritici assessed as wheat powdery mildew disease control at 31.3 ppm foliar application for 48 hr before inoculation by preventive manner. The assay is classed as functional.
Turning to `CNC(=O)/C(=N/OC)c1ccccc1COc1c(Cl)cccc1Cl`, the Activity was 90%.
Still for that read-out and setting: for `CNC(=O)/C(=N/OC)c1ccccc1COc1c(Cl)cc(Cl)cc1Cl` the value was 90%.

A further assay relates to Thanatephorus cucumeris. Briefly: Fungicidal activity against Thanatephorus cucumeris assessed as rice sheath blight disease control at 125 ppm foliar application for 24 hr before inoculation at 26 +/- 2 degC measured after 5 days by preventive manner. The assay is classed as functional.
`CNC(=O)/C(=N/OC)c1ccccc1COc1ccccc1OC(C)C`: the Activity is on record as <90%.
Turning to `CNC(=O)/C(=N/OC)c1ccccc1COc1ccccc1-c1ccccc1`, the Activity is recorded as <90%.
The same measure, in the same setting: the result for `CNC(=O)/C(=N/OC)c1ccccc1COc1c(Cl)ccc(Cl)c1Cl` reads <90%; that for `CNC(=O)/C(=N/OC)c1ccccc1COc1c(C)ccc(C)c1C`, <90%.
Same read-out and setting: the result for `CNC(=O)/C(=N/OC)c1ccccc1COc1c(C)cccc1C` reads <90%; that for `CNC(=O)/C(=N/OC)c1ccccc1COc1ccc(C#N)cc1`, <90%; that for `CNC(=O)/C(=N/OC)c1ccccc1COc1cccc(N(C)C)c1`, <90%.
Still for that read-out and setting: the result for `CNC(=O)/C(=N/OC)c1ccccc1COc1c(Cl)cccc1Cl` reads <90%; that for `CNC(=O)/C(=N/OC)c1ccccc1COc1c(Cl)cc(Cl)cc1Cl`, <90%.
Take `C#CCOc1ccccc1OCc1ccccc1/C(=N\OC)C(=O)NC`: the Activity is given as <90%.

The next assay relates to Pseudoperonospora cubensis. Briefly: Fungicidal activity against Pseudoperonospora cubensis assessed as cucumber downy mildew disease control at 125 ppm foliar application 24 hr before inoculation onto the abaxial(untreated) surface of leaf by preventive manner. The format is functional.
`CNC(=O)/C(=N/OC)c1ccccc1COc1ccccc1OC(C)C`: the Activity is listed as <90%.
The same measure, in the same setting: for `CNC(=O)/C(=N/OC)c1ccccc1COc1ccccc1-c1ccccc1` the value was <90%.
Same read-out and setting: for `CNC(=O)/C(=N/OC)c1ccccc1COc1c(Cl)ccc(Cl)c1Cl` the value was <90%; for `CNC(=O)/C(=N/OC)c1ccccc1COc1c(C)ccc(C)c1C`, 90%.
Same read-out and setting: for `CNC(=O)/C(=N/OC)c1ccccc1COc1c(C)cccc1C` the value was <90%; for `CNC(=O)/C(=N/OC)c1ccccc1COc1ccc(C#N)cc1`, 90%.
Turning to `CNC(=O)/C(=N/OC)c1ccccc1COc1cccc(N(C)C)c1`, the Activity was <90%.
Same read-out and setting: for `CNC(=O)/C(=N/OC)c1ccccc1COc1c(Cl)cccc1Cl` the value was <90%.
On the same count and under the same terms, for `CNC(=O)/C(=N/OC)c1ccccc1COc1c(Cl)cc(Cl)cc1Cl` the value was <90%.
The same measure, in the same setting: for `C#CCOc1ccccc1OCc1ccccc1/C(=N\OC)C(=O)NC` the value was <90%.

Another assay concerns Pseudoperonospora cubensis. Briefly: Fungicidal activity against Pseudoperonospora cubensis assessed as cucumber downy mildew disease control at 125 ppm foliar application 24 hr before inoculation onto the adaxial(treated) surface of leaf by preventive manner. The format is functional.
As to `CNC(=O)/C(=N/OC)c1ccccc1COc1ccccc1-c1ccccc1`, the Activity stood at 90%.
In the case of `CNC(=O)/C(=N/OC)c1ccccc1COc1c(C)ccc(C)c1C`, the Activity is given as <90%.
On the same count and under the same terms, the result for `CNC(=O)/C(=N/OC)c1ccccc1COc1c(C)cccc1C` reads <90%; that for `CNC(=O)/C(=N/OC)c1ccccc1COc1c(Cl)cccc1Cl`, <90%; that for `C#CCOc1ccccc1OCc1ccccc1/C(=N\OC)C(=O)NC`, 90%.

The next assay has as its system Pseudoperonospora cubensis. Briefly: Fungicidal activity against Pseudoperonospora cubensis assessed as cucumber downy mildew disease control at 31.3 ppm foliar application 24 hr before inoculation onto the adaxial(treated) surface of leaf by preventive manner. The assay is classed as functional.
As to `CNC(=O)/C(=N/OC)c1ccccc1COc1ccccc1OC(C)C`, the Activity is given as 90%.
Same read-out and setting: for `CNC(=O)/C(=N/OC)c1ccccc1COc1c(Cl)ccc(Cl)c1Cl` the value was 90%; for `CNC(=O)/C(=N/OC)c1ccccc1COc1ccc(C#N)cc1`, 90%.
Still for that read-out and setting: the result for `CNC(=O)/C(=N/OC)c1ccccc1COc1cccc(N(C)C)c1` reads 90%; that for `CNC(=O)/C(=N/OC)c1ccccc1COc1c(Cl)cc(Cl)cc1Cl`, 90%.

In a further assay the test system is Botrytis cinerea. As to the kind of experiment: Fungicidal activity against Botryotinia fuckeliana assessed as cucumber gray mold disease control at 125 ppm foliar application […] at 22 +/- 2 degC by preventive manner. The format is functional.
As to `CNC(=O)/C(=N/OC)c1ccccc1COc1ccccc1OC(C)C`, the Activity is reported as <90%.
As to `CNC(=O)/C(=N/OC)c1ccccc1COc1ccccc1-c1ccccc1`, the Activity is <90%.
The same measure, in the same setting: the result for `CNC(=O)/C(=N/OC)c1ccccc1COc1c(Cl)ccc(Cl)c1Cl` reads 90%; that for `CNC(=O)/C(=N/OC)c1ccccc1COc1c(C)ccc(C)c1C`, <90%; that for `CNC(=O)/C(=N/OC)c1ccccc1COc1c(C)cccc1C`, 90%.
On the same count and under the same terms, for `CNC(=O)/C(=N/OC)c1ccccc1COc1c(Cl)cccc1Cl` the value was 90%.
Consider `C#CCOc1ccccc1OCc1ccccc1/C(=N\OC)C(=O)NC`, for which the Activity is on record as <90%.

A further assay concerns Botrytis cinerea. Briefly: Fungicidal activity against Botryotinia fuckeliana assessed as cucumber gray mold disease control at 31.3 ppm foliar application […] at 22 +/- 2 degC by preventive manner. The format is functional.
Turning to `CNC(=O)/C(=N/OC)c1ccccc1COc1ccc(C#N)cc1`, the Activity was 90%.
`CNC(=O)/C(=N/OC)c1ccccc1COc1cccc(N(C)C)c1`: the Activity was determined as 90%.
Still for that read-out and setting: the result for `CNC(=O)/C(=N/OC)c1ccccc1COc1c(Cl)cc(Cl)cc1Cl` reads 90%.
